In patent US9079977B2, “Anti-trypanosomal peptides and uses thereof” (priority 2009, dated 2015):
Where a SMILES comes first, the peptide text is derived from it.

Experiments:
[1] = test system: Human embryonic kidney cells (HEK); experiment: Mammalian cell viability assay (trypan blue exclusion), Example 2; format: cell-based; conditions: 80-160 μM, 2 h at 37° C.
Method: (§1) Mammalian cell viability and hemolysis assays. Human embryonic kidney cells (HEK) (ATCC CRL-1573) and LNCaP prostate cancer cells (ATCC CRL-1740) were utilized for cell viability assays. Human embryonic kidney cells were cultured in Dulbecco's Modified Eagles Medium, high glucose (Thermo Scientific, cat #SH30243.01) with 10% fetal bovine serum at 37° C. and 5% CO2. Prostate cancer cells were cultured in RPM-1640 medium (Invitrogen, cat #A10491-01) with 10% fetal bovine serum at 37° C. and 5% CO2. In both cases, assays were performed by aliquoting cells into 96 well plates at approximately 60% confluency and allowing the cells to adhere for two hours. Cells were then incubated with serial dilutions of SHP-1, or the relevant control, in the corresponding media for two hours at 37° C. Cell viability was determined by the ability of live cells to exclude trypan blue. The cells were incubated with 0.1% trypan blue for 10 minutes and examined microscopically for cytoplasmic staining. The potential for SHP-1 to induce hemolysis was assayed by monitoring hemoglobin (Hb) release from freshly collected human erythrocytes that had been washed and incubated with SHP-1 in PBS. The Hb concentration of the supernatant was determined by the absorbance at 412 nm and compared to 100% hemolysis acquired by hypotonic lysis. […]

[2] = not told
Method: Calcein release assays. […] Briefly, liposomes were diluted 1:1000 into 50 mM Tris, pH 7.0 and calcein fluorescence was monitored at 513 nm when excited at 484 nm. The percent calcein release was calculated relative to the 100% fluorescence intensity, achieved by the addition of 0.01% Triton X-100.

[3] = test system: LNCaP prostate cancer cells; experiment: Mammalian cell viability assay (trypan blue exclusion), Example 2; format: cell-based, human; conditions: 80-160 μM, 2 h at 37° C.
Method: as §1

[4] = test system: plasma membrane of live BSF T. b. brucei; experiment: Anisotropy assays with DPH and TMA-DPH, Example 4; format: cell-based, Trypanosoma brucei brucei; conditions: 37° C.
Method: Anisotropy Assays. The plasma membrane rigidity of live T. b. brucei was determined by measuring the fluorescence depolarization of diphenyl-1,3,5-hexatriene p-toluenesulfonate (DPH) or 1-(4-trimethylammoniumphenyl)-6-diphenyl-1,3,5-hexatriene p-toluenesulfonate (TMA-DPH; Invitrogen T204). Cells were washed 3 times with and resuspended in PBS at a density of 3×10^6 cells/ml. The anisotropic probes were added to a final concentration of […] and allowed to intercalate into the cell membrane for one hour in the dark. Anisotropic values were acquired via the software function of a PerkinElmer Life Sciences LS55 spectrofluorometer. Samples were excited at 358 nm, and emission was read at 430 nm, both with 10-nm slit widths. Temperature was maintained at 37° C. by means of the PerkinElmer LS55 Biokinetics accessory. Data were corrected for light scattering with an unlabeled sample of cells, and anisotropy was calculated according to the equation r=(IVV−GIVH)/(IVV+2GIVH), where r is the anisotropy value, IVV is the emission intensity acquired with the excitation- and emission-polarizing filters set vertically, G is the instrument correction factor, and IVH is the emission intensity acquired with the excitation-polarizing filter set vertically and the emission-polarizing filter set horizontally. All assays were conducted at 37° C. […]

BSF T. b. brucei [5] = experiment: Flow cytometry binding of FITC-labeled SHP; format: cell-based, Trypanosoma brucei brucei; conditions: 8 μM FITC-labeled peptide
Method: Flow Cytometry. Peptide binding to BSF T. b. brucei was monitored by flow cytometry. Binding assays were performed with 3×10^6 cells/ml in HMI 9 plus 10% fetal bovine serum at 25° C. FITC-labeled SHP-1 or SHP-3 was added to a final concentration of 8 μM and 50,000 cells were immediately counted on a CyAn ADP flow cytometer (Dako). Data were analyzed with FlowJo software (TreeStar Inc.).

BSF T. b. brucei [6] = experiment: Trypanosome killing assay, Example 4; format: cell-based, Trypanosoma brucei brucei; conditions: two hour killing assay, 37° C.
Method: Trypanosome Killing Assays. Light microscopy based trypanosome killing assays were performed as previously described in detail (Harrington et al., 2010, J Biol Chem; 285(37):28659-66; Widener et al., 2007, PLoS Pathog; 3(9):1250-61; Shiflett et al., 2007, J Eukaryot Microbiol; 54(1):18-21; and Hajduk et al., 1989, J Biol Chem; 264(9):5210-7). Metacyclic T. b. brucei TREU 667 were obtained from dissection of the salivary glands of infected tsetse flies. Newly hatched Glossina morsitans morsitans (24-48 hours post eclosion) were fed defibrinated horse blood containing 2×10^6 ml^−1 trypanosomes and maintained at 25° C. in 75% relative humidity and fed maintenance blood meals three times per week. Following day 20-30, flies were harvested and salivary glands were dissected out and washed in HMI 9 media containing 10% fetal bovine serum. Metacyclic cells were collected via centrifugation and maintained in HMI 9 media with 10% fetal bovine serum at 37° C. in 5% CO2 until use. Killing assays were conducted with 1×10^4 cells/ml in HMI 9 media containing 10% fetal bovine serum. Trypanosoma vivax and T. congolense were grown from stabilites in donor ICR mouse (Harlan, United Kingdom). Parasites were harvested from mice by terminal exsanguination and passage of infected blood through a small anion exchange column. Cells were maintained in HMI 9 with 20% goat serum at 37° C. in 5% CO2 until use. Killing assays were performed with 1×10^7 cells/ml in HMI 9 media with either 20% goat serum, in the case of T. vivax and T congolense, and 10% fetal bovine serum, for T. b. brucei. Cells were incubated at 37° C. for 2 hours and dead parasites were scored visually. All were conducted in at least duplicate, and data points are the averages with standard deviations.

BSF T. b. brucei [7] = experiment: Trypanosome motility by video microscopy, Example 4; format: cell-based, Trypanosoma brucei brucei; conditions: 40 μM peptide, 37° C.
Method: Trypanosome motility. All images and videos were acquired with an Axio Observer Z1 equipped with an AxioCam MRm controlled by AxioVision 4.6 software. Videos were acquired with live cells at a density of 1×10^7 cells/ml in HMI 9 media with 10% fetal bovine serum, incubated with 40 µM SHP-1 at 37° C. Videos were recorded at magnification 63× with 50-ms acquisition times. The motility of BSF trypanosomes was scored visually from video playback of trypanosomes scanned throughout 10 μl aliquots. Data is shown as the average of triplicate trials with standard deviations.

Compound | cell death of HEK cells (morphology, trypan blue exclusion) [1] | permeabilization of homogenous symmetric saturated PC liposomes [2] | permeabilization of symmetric 15:0 PC or DPPC liposomes above Tm [2] | cell death of LNCaP cells (morphology, trypan blue exclusion) [3] | rigidity of the interfacial region of the plasma membrane (TMA-DPH) [4] | binding to BSF T. brucei (BSF T. b. brucei [5]) | killing of BSF T. brucei (trypanocidal activity) (BSF T. b. brucei [6]) | motility phenotype (hyperactivation, constriction) (BSF T. b. brucei [7])
CC[C@H](C)[C@H](NC(=O)[C@@H](NC(=O)[C@H](C)NC(=O)CNC(=O)[C@H](CC(C)C)NC(=O)[C@H](CC(=O)O)NC(=O)[C@@H](N)CO)C(C)C)C(=O)N[C@@H](CO)C(=O)N[C@@H](CC(C)C)C(=O)N[C@@H](CC(C)C)C(=O)N[C@@H](CC(C)C)C(=O)N[C@@H](Cc1c[nH]c2ccccc12)C(=O)NCC(=O)N[C@@H](CCCNC(=N)N)C(=O)N[C@@H](CCC(N)=O)C(=O)N[C@@H](CC(C)C)C(=O)N[C@@H](Cc1ccccc1)C(=O)N[C@@H](C)C(=O)O [SHP-1, SDLGAVISLLLWGRQLFA] (H-SDLGAVISLLLWGRQLFA-OH; N-terminus and C-terminus assumed) | did not result in cell death | not permeabilized | resulted in sensitivity to permeabilization | did not result in cell death | – | – | – | –
FHQIWAALLYFYGIILNSIY (amino acid sequence of small hydrophobic peptide -3 (SHP-3)) [Small hydrophobic peptide 3, derived from an apolipoprotein] | – | – | – | – | increased the rigidity of the interfacial region of the plasma membrane | binding to BSF T. brucei | no killing was seen | does cause initial hyperactivation of BSF T. b. brucei, however subsequent constriction of motility does not occur
